Source: paper PMC4457643 (Biochimica et biophysica acta, 2015)
Where two headings read alike, the source gives them in different places.

Columns and labels:
[1] = target: T1, CcP(triAla) (Saccharomyces cerevisiae, UniProt P00431, H119A/R115A/W118A); assay: biochemical; assay type: binding, yeast; conditions: for share of absorbance change, high-affinity (KD1) phase / share of absorbance change, low-affinity (KD2) phase: pH 7.0
[2] = target: T2, CcP(triVal) (Saccharomyces cerevisiae, UniProt P00431, H119V/R115V/W118V); assay: biochemical; assay type: binding, yeast; conditions: for share of absorbance change, high-affinity (KD1) phase / share of absorbance change, low-affinity (KD2) phase: pH 7.0
[3] = target: T3, CcP(triLeu) (Saccharomyces cerevisiae, UniProt P00431, H119L/R115L/W118L); assay: biochemical; assay type: binding, yeast
[4] = target: T1, CcP(triAla); assay: Stopped-flow kinetics of imidazole binding to CcP; parameters: species or system yeast
[5] = target: T2, CcP(triVal); assay: Stopped-flow kinetics of imidazole binding to CcP; parameters: species or system yeast; conditions: for pKa1 for ka^app / kd^app, k^acid (low pH limit): fit to Eq. 4; for ka^app, k^acid (low pH value): fit to Eq. 4, 0.10 M ionic strength, 25 °C; for ka^app / kd^app / kmax: pH 7
[6] = target: T3, CcP(triLeu); assay: Stopped-flow kinetics of imidazole binding to CcP; parameters: species or system yeast; conditions: for pKa1 for ka^app / pKa2 for ka^app: fit to Eq. 4 with pKa1 ≤ pKa2
[7] = free ligand; cited from earlier work
[8] = read-out: KD2 (low-affinity phase), pH 7.0, 0.10 M ionic strength potassium phosphate buffer
[9] = read-out: KD1 (high-affinity phase), pH 7.0, 0.10 M ionic strength potassium phosphate buffer
[10] = read-out: KD1acid (low pH limit of KD1), fit of pH dependence pH 4-8 to Eq. 2
[11] = read-out: KD1base (high pH limit of KD1), fit of pH dependence pH 4-8 to Eq. 2
[12] = read-out: KD2base (high pH limit of KD2), fit of pH dependence pH 4-8 to Eq. 2
[13] = fast phase, fit to Eq. 4, 0.10 M ionic strength, 25 °C
[14] = fast phase, listed as imidazole
[15] = slow phase, listed as imidazole
[16] = slow phase, single-ionization fit

T2 sequence (P00431 68-361 R115V/W118V/H119V): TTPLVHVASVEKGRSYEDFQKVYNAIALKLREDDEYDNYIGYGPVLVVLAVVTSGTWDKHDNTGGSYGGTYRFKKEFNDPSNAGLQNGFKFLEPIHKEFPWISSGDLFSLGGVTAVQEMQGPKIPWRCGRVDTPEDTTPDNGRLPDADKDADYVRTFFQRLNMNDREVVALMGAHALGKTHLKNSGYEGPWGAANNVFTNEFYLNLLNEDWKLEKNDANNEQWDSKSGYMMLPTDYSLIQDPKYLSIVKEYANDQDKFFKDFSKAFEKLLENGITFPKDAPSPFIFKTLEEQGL
T3 sequence (P00431 68-361 R115L/W118L/H119L): as the sequence (P00431 68-361 R115V/W118V/H119V) above, with V48L, V51L, V52L counted along it
T1 sequence (P00431 68-361 R115A/W118A/H119A): as the sequence (P00431 68-361 R115V/W118V/H119V) above, with V48A, V51A, V52A counted along it

Cn1ccnc1 [1-Methylimidazole, 1-methylimidazole]
Kd [1]: 0.35 mM
share of absorbance change, high-affinity (KD1) phase [1]: 30%
share of absorbance change, low-affinity (KD2) phase [1]: 70%
share of absorbance change, low-affinity (KD2) phase ([1]; listed as MIM): about 70%
Kd [2]: 0.16 mM
share of absorbance change, high-affinity (KD1) phase [2]: 77%
share of absorbance change, low-affinity (KD2) phase [2]: 23%
Kd [2, 8]: 6.8 mM
Kd [3]: 39 mM

c1c[nH]cn1 [Imidazole]
share of absorbance change at 414 nm, low-affinity phase ([1]; between pH 4 and 8): 75 ± 8%
share of absorbance change, low-affinity phase ([1]; pH 5.5): 76%
share of absorbance change, high-affinity (KD1) phase [1]: 17%
share of absorbance change, low-affinity (KD2) phase [1]: 83%
Kd ([1]; read-out: KD1 (high-affinity phase), pH 5.5, 25 °C): 0.1 ± 0.03 mM
Kd [1, 9]: 0.22 mM
Kd [1, 10]: > 25 mM
Kd [1, 11]: 0.13 ± 0.06 mM
Kd [1, 8]: 12 mM
Kd ([1]; read-out: KD2 (low-affinity phase), pH 7.0, 25 °C): 11 ± 1 mM
Kd [1, 12]: 6.4 ± 0.7 mM
high-affinity imidazole binding stronger than for wild-type CcP ([2]; pH 7): 4.7 orders of magnitude
share of absorbance change, high-affinity (KD1) phase [2]: 68%
share of absorbance change, low-affinity (KD2) phase [2]: 32%
share of absorbance change, high-affinity phase, average ([2]; pH range 4 to 8): 67 ± 10%
Kd [2, 9]: 0.083 mM
Kd [2, 10]: 9.6 ± 5.5 mM
Kd [2, 11]: 0.096 ± 0.007 mM
Kd ([2]; read-out: KD1base (high pH limit of KD1), fit of pH dependence to Eq. 2): 0.096 ± 0.007 mM
Kd [2, 8]: 12 mM
Kd [2, 12]: 6.7 ± 2.3 mM
share of absorbance change, high-affinity (KD1) phase ([3]; pH 7.0): 78%
share of absorbance change, low-affinity (KD2) phase ([3]; pH 7.0): 22%
Kd [3, 9]: 0.6 mM
Kd [3, 11]: 0.22 ± 0.15 mM
Kd [3, 8]: 17 mM
pKa1 for ka^app ([4]; fast phase, fit to Eq. 4): 7.0 ± 0.2
ka^app, k^acid (low pH value) [4, 13]: 2.2 ± 0.4 M^−1 s^−1
ka^app ([4]; fast phase, pH 7): 80 ± 7 M⁻¹ s⁻¹
kd^app ([4]; fast phase, pH 7): 0.43 ± 0.04 s⁻¹
kd^app, pH-independent average value ([4]; fast phase, pH range 4.0 to 8.0): 0.47 ± 0.10 s^−1
kmax ([4]; slow phase, pH 7): 0.050 ± 0.009 s⁻¹
kmax (= kslow), pH-independent average value ([4]; slow phase, pH range 4.0 to 8.0): 0.032 ± 0.011 s^−1
kmax (= kslow), pH-independent average value ([4]; slow phase, pH range 4.0 to 8.0, listed as imidazole): (3.2 ± 1.1) × 10^−2 s^−1
pKa1 for ka^app ([5]; fast phase): 6.2 ± 0.3
ka^app, k^acid (low pH value) ([5]; fast phase): 5.4 ± 16.2 M^−1 s^−1
ka^app, k^acid (low pH value) [5, 14]: 5.4 M^−1 s^−1
ka^app ([5]; fast phase): 170 ± 7 M⁻¹ s⁻¹
kd^app ([5]; fast phase): 0.32 ± 0.01 s⁻¹
kmax ([5]; fast phase): 1.9 ± 0.1 s⁻¹
kd^app, pH-independent average value ([5]; fast phase, pH range 4 to 8): 0.25 ± 0.08 s^−1
kmax, pH-independent value ([5]; fast phase, pH range 4 to 8): 1.5 ± 0.3 s^−1
kmax, pH-independent value ([5]; fast phase, pH range 4 to 8, listed as imidazole): 1.5 s^−1
kd^app, k^acid (low pH limit) ([5]; slow phase): 0.026 ± 0.009 s^−1
pKa1 for ka^app ([5]; slow phase): 7.6 ± 0.3
ka^app, k^acid (low pH value) ([5]; slow phase): 1.3 ± 0.7 M^−1 s^−1
ka^app, k^acid (low pH value) [5, 15]: 1.3 M^−1 s^−1
kd^app, k^acid (low pH limit) [5, 15]: 0.026 s^−1
ka^app ([5]; slow phase): 30 ± 10 M⁻¹ s⁻¹
kd^app ([5]; slow phase): 0.050 ± 0,006 s^−1
kmax ([5]; slow phase): 0.16 ± 0.08 s⁻¹
kmax, pH-independent value ([5]; slow phase, pH range 4 to 8): 0.17 ± 0.04 s^−1
kmax, pH-independent value ([5]; slow phase, pH range 4 to 8, listed as imidazole): 0.17 s^−1
ka^app, k^acid (low pH value) [6, 13]: 2.2 ± 0.4 M^−1 s^−1
ka^app, k^base (high pH value) [6, 13]: 0 ± 25 M^−1 s^−1
ka^app, k^base (high pH value) ([6]; fast phase, fit to Eq. 4, 0.10 M ionic strength, 25 °C, listed as imidazole): less than 25 M^−1 s^−1
pKa1 for ka^app ([6]; fast phase): 7.3 ± 0.9
pKa2 for ka^app ([6]; fast phase): 7.3 ± 1.5
pKa1 for ka^app [6, 14]: 7.3
pKa2 for ka^app [6, 14]: 7.3
ka^app ([6]; fast phase, pH 7): 36 ± 4 M⁻¹ s⁻¹
kd^app ([6]; fast phase, pH 7): 0.24 ± 0.03 s⁻¹
kd^app, pH-independent average value ([6]; fast phase, pH range 4 to 8): 0.38 ± 0.12 s^−1
kmax, average value ([6]; slow phase, averaged over pH range 4 to 8): 0.048 ± 0.018 s⁻¹
kmax ([6]; slow phase, pH 7): 0.070 ± 0.002 s⁻¹
kmax (= kslow), k^acid (low pH value) [6, 16]: 0.032 ± 0.003 s^−1
kmax (= kslow), k^neut (high pH value) [6, 16]: 0.077 ± 0.011 s^−1
pKa1 for kmax [6, 16]: 6.7 ± 0.4

O=[N+]([O-])c1c[nH]cn1 [4-Nitroimidazole, 4-nitroimidazole]
Kd [1]: 16 mM
Kd [2]: 0.56 mM
Kd [3]: 35 mM
pKa for the imidazole/imidazolate ionization [7]: 9.5
